Data as given in publication PMC3635066 (Journal of medicinal chemistry, 2012).

Columns and labels:
recombinant CpIMPDH = molecular target: T1, recombinant CpIMPDH (Cryptosporidium parvum, UniProt Q8T6T2); experiment: biochemical; assay type: biochemical; conditions: for increase in potency: relative to compound 1
T1 sequence (Q8T6T2 1-400): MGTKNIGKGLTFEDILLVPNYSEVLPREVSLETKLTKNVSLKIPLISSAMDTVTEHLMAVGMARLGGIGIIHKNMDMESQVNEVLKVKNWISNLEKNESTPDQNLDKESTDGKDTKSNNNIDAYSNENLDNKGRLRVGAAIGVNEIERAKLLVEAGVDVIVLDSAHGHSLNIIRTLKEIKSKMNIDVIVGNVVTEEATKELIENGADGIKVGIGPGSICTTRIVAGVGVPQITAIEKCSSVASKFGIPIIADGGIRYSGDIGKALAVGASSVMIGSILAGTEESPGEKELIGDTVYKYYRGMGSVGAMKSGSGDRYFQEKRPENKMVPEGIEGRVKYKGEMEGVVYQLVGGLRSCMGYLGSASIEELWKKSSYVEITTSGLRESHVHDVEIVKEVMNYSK

[1] = Mouse liver microsomal stability; assay type: in vitro ADME

Compound	CpIMPDH inhibitory activity (in words) (recombinant CpIMPDH)	also measured
C=C(C)c1cccc(C(C)(C)NC(=O)Nc2ccc(Br)cc2)c1 [Compound 5c, 1-(4-Bromophenyl)-3-(2-(3-(prop-1-en-2-yl)phenyl)propan-2-yl)urea]		increase in potency (recombinant CpIMPDH): 32 fold
CC(O)c1cccc(C(C)(C)NC(=O)Nc2ccc(Cl)cc2)c1 (stereo not shown) [Compound 10, 1-(4-chlorophenyl)-3-(2-(3-(1-hydroxyethyl)phenyl)propan-2-yl)urea]	moderate activity	
CC(=O)c1cccc(C(C)(C)OC(=O)Nc2ccc(Cl)cc2)c1 [Compound 28, 2-(3-Acetylphenyl) propan-2-yl (4-chlorophenyl)carbamate]		reduction in activity (recombinant CpIMPDH; relative to 6a): 2 fold
CC(C)c1cccc(C(C)(C)NC(=O)Nc2ccc3ccccc3c2)c1 [Compound 11, 1-(2-(3-Isopropylphenyl)propan-2-yl)-3-(naphthalen-2-yl)urea]	complete loss of inhibitory activity	
CO/N=C(\C)c1cccc(C(C)(C)NC(=O)Nc2ccc(Cl)c(C(F)(F)F)c2)c1 [Compound 8a, (E)-1-(4-Chloro-3-(trifluoromethyl)phenyl)-3-(2-(3-(1-(methoxyimino)ethyl)phenyl)propan-2-yl)urea]		mouse liver microsomal stability (in words) [1]: less stable
CC(=O)c1cccc(CNC(=O)Nc2ccc(Cl)cc2)c1 [Compound 23, 1-(3-Acetylbenzyl)-3-(4-chlorophenyl) urea]	complete loss of activity	
C=C(C)c1cccc(C(C)(C)NC(=O)Nc2ccc(C(C)(C)C)cc2)c1 [Compound 5g, 1-(4-(tert-Butyl)phenyl)-3-(2-(3-(prop-1-en-2-yl)phenyl)propan-2-yl)urea]	lacking activity	
C=C(C)c1cccc(C(C)(C)NC(=O)Nc2ccccc2Cl)c1 [Compound 5e, 1-(2-Chlorophenyl)-3-(2-(3-(prop-1-en-2-yl)phenyl)propan-2-yl)urea]	completely inactive	
CC(C)(NC(=O)Nc1ccc2[nH]c(=O)[nH]c2c1)c1ccccc1 [Compound 38, 1-(2-Oxo-2,3-dihydro-1H-benzo[d]imidazol-5-yl)-3-(2-phenylpropan 2 yl)urea]	complete loss of inhibitory activity	
CC(=O)c1cccc(C(C)(C)NC(=O)Nc2ccc(Cl)c(C(N)=O)c2)c1 [Compound 6c, 5-(3-(2-(3-acetylphenyl)propan-2-yl)ureido)-2-chlorobenzamide]		mouse liver microsomal stability (in words) [1]: very resistant to oxidative degradation in microsomes
C=C(C)c1cccc(C(C)(C)NC(=O)Nc2ccc(Cl)cc2)c1 [Compound 5b, 1-(4-chlorophenyl)-3-(2-(3-(prop-1-en-2-yl)phenyl)propan-2-yl)urea]		increase in potency (recombinant CpIMPDH): 16 fold
CC(C)(NC(=O)Nc1ccc(Cl)c(C(N)=O)c1)c1cccc(-c2ccccc2)c1 [Compound 36a, 5-(3-(2-([1, 1′-biphenyl]-3-yl)propan-2-yl)ureido)-2-chlorobenzamide]	retained potent activity	
CC(C)(NC(=O)Nc1ccc(Cl)cc1)c1ccc(-c2ccccc2)cc1 [Compound 36b, 1-(2-([1,1′-Biphenyl]-4-yl)propan-2-yl)-3-(4-chlorophenyl)urea]	complete loss of inhibitory activity	
C=C(C)c1cccc(C(C)(C)NC(=O)Nc2cccc(Cl)c2)c1 [Compound 5d, 1-(3-Chlorophenyl)-3-(2-(3-(prop-1-en-2-yl)phenyl)propan-2-yl)urea]		loss of activity (recombinant CpIMPDH; relative to 5b): 3 fold
C/C(=N\O)c1cccc(C(C)(C)NC(=O)Nc2ccc(Cl)c(C(N)=O)c2)c1 [Compound 7c, (E) 2 chloro 5-(3-(2-(3-(1-(hydroxyimino)ethyl)phenyl)propan-2-yl)ureido)benzamide]		IC50 (recombinant CpIMPDH): ≤ 1 nM
C/C(=N\OCCN)c1cccc(C(C)(C)NC(=O)Nc2ccc(Cl)c([N+](=O)[O-])c2)c1 [Compound 9, (E)-1-(2-(3-(1-((2-aminoethoxy)imino)ethyl)phenyl)propan-2-yl)-3 (4-chloro-3-nitrophenyl)urea]		mouse liver microsomal stability (in words) [1]: excellent mouse liver microsomal stability
